Source: patent publication US12365687B2 (Hoffmann-La Roche Inc., priority 2021, dated 2025)

Columns and labels:
[1] = biological target: human GABAA α1β3γ2 receptor (Homo sapiens (Human), UniProt P14867+P18507); assay: Radioligand binding assay for γ2-containing GABAA subtypes, [3H]Flumazenil competition (α1β3γ2); conditions: for γ2/γ1 Selectivity Ratio: Ki α1β3γ2 (nM)/Ki α2β2γ1 (nM); for LogSel: Log[Ki α1β3γ2 (nM)/Ki α2β2γ1 (nM)]
Method: The affinity of compounds at GABAA γ2 subunit-containing receptors was measured by competition for [^3H]Flumazenil (81.1 Ci/mmol; Roche) binding to HEK293F cells expressing human (transiently transfected) receptors of composition α1β3γ2.
Harvested pellets from HEK293F cells expressing the different GABAA γ2 receptor subtypes were resuspended in Mannitol Buffer pH 7.2-7.4 and processed as described above for the cells expressing the GABAA γ1 subunit-containing receptors.
Assays were incubated to equilibrium for 1 hour at 4° C. and harvested onto GF/C uni-filters (Packard) by filtration using a Packard harvester and washing with ice-cold wash buffer (50 mM Tris; pH 7.5). After anhydrousing, filter-retained radioactivity was detected by liquid scintillation counting. Ki values were calculated using Excel-Fit (Microsoft) and are the means of two determinations.

[2] = biological target: α2β2γ1 GABAA receptor subtype (Homo sapiens (Human), UniProt P47869+Q8N1C3); assay: Two-electrode voltage clamp electrophysiology in Xenopus oocytes expressing GABAA receptors (modulation of GABA EC20 current); format: cell-based; conditions: for Efficacy (GABA)%: % modulation of GABA EC20 = 100*(Fold increase-1), α2β2γ1 oocytes, compound at approx. 30-fold Ki; for Fold increase h-GABA-A α2β2γ1 oocyte @ 30-fold Ki: Xenopus oocytes expressing α2β2γ1, compound at approx. 30-fold its Ki α2β2γ1, GABA EC20 current
Method: Xenopus laevis oocytes at maturation stages V-VI were used for the expression of cloned mRNA encoding GABAA receptor subunits. Oocytes ready for RNA micro-injection were bought from Ecocyte, Castrop-Rauxel, Germany and stored in modified Barth's medium (composition in mM: NaCl 88, KCl 1, NaHCO3 2.4, HEPES 10, MgSO4 0.82, CaNO3 0.33, CaCl2 0.33, pH=7.5) at 20° C. until the experiment.
Oocytes were plated in 96-well plates for microinjection using the Roboinject automated instrument (MultiChannelSystems, Reutlingen, Germany). Approximately 50 nL of an aqueous solution containing the RNA transcripts for the subunits of the desired GABAA receptor subtype was injected into each oocyte. […] Oocytes were kept in modified Barth's medium (composition in mM: NaCl 88, KCl 1, NaHCO3 […], HEPES 10, MgSO4 0.82, CaNO3 0.33, CaCl2 0.33, pH=7.5) at 20° C. until the experiment.
Electrophysiological experiments were performed using the Roboocyte instrument (MultiChannelSystems, Reutlingen, Germany) on days 3 to 5 after the micro-injection of mRNA. During the experiment the oocytes were constantly superfused by a solution containing (in mM) NaCl 90, KCl 1, HEPES 5, MgCl2 1, CaCl2 1 (pH 7.4). Oocytes were impaled by two glass microelectrodes (resistance: 0.5-0.8 MΩ) which were filled with a solution containing KCl 1M+K-acetate 1.5 M and voltage-clamped to −80 mV. The recordings were performed at room temperature using the Roboocyte two-electrode voltage clamp system (Multichannelsystem). After an initial equilibration period of 1.5 min GABA was added for 1.5 min at a concentration evoking approximately 20% of a maximal current response (EC20). After another rest interval of 2.5 min GABA was again added evoking a response of similar amplitude and shape. […] Current traces were recorded at a digitization rate of 10 Hz during and shortly before and after the GABA application.
Each compound and concentration was tested on at least 3 oocytes. Different oocytes were used for different compound concentrations.
For the analysis, the digitized current traces of the first and second GABA response were superimposed and, if necessary, rescaled to equal maximal amplitudes. The ratio between the two responses during the time interval of test compound application was calculated point by point. The extremum of the resulting “ratio trace” was taken as the efficacy (“Fold increase”) of the compound expressed as “% modulation of GABA EC20” (100*(Fold increase-1)).

[3] = biological target: human GABAA α5β2γ1 receptor (Homo sapiens (Human), UniProt P31644+Q8N1C3); assay: Radioligand binding assay for γ1-containing GABAA subtypes, [3H]RO7239181 competition (α5β2γ1)
Method: (§1) The affinity of compounds at GABAA γ1 subunit-containing receptors was measured by competition for [^3H]RO7239181 (67.3 Ci/mmol; Roche) binding to membranes from HEK293F cells (ThermoFisher R79007) expressing human (transiently transfected) receptors of composition α5β2γ1, α2β2γ1, α1β2γ1.
(§2) Harvested pellets from HEK293F cells expressing the different GABAA receptor subtypes were resuspended in Mannitol Buffer pH 7.2-7.4 (Mannitol 0.29 M, Triethylamine 10 mM, Acetic acid 10 mM, EDTA 1 mM plus protease inhibitors (20 tablets Complete, Roche Diagnostics Cat. No. 05 056 489 001 per liter)), washed two times and then resuspended at 1:10 to 1:15 dilution in the same buffer. Cell disruption was performed by stirring the suspension in a Parr vessel #4637 at 435 psi for 15 minutes, and then the suspensions were centrifuged at 1000×g for 15 minutes at 4° C. (Beckman Avanti J-HC; rotor JS-4.2). The supernatant (S1) was transferred in a 2 l Schott flask and the pellet (P1) was resuspended with Mannitol Buffer up to 175 ml. The resuspended pellet was transferred into a 250 ml Corning centrifugal beaker and centrifuged at 1500×g for 10 minutes at 4° C. (Beckman Avanti J-HC; rotor JS-4.2). The supernatant (S1) was then transferred in the 2 l Schott flask and the pellet was discarded. The supernatants (S1) were centrifuged in 500 ml Beckman polypropylene centrifugal beaker at 15′000×g for 30 minutes at 4° C. (Beckman Avanti J-20 XP; rotor JLA-10.500). The pellet (P2) was resuspended with Mannitol Buffer 1:1 and frozen at −80° C. The supernatant (S2) was centrifuged in 100 ml Beckman polypropylene centrifugal tubes at 48000×g for 50 minutes at 4° C. (Beckman Avanti J-20 XP; rotor JA-18). The supernatant (S3) was discarded and the pellet (P3) was resuspended with 1:1 Mannitol Buffer. The P2 and P3 protein concentration was determined with the BIORAD Standard assay method with bovine serum albumin as standard and measured on the NANO-Drop 1000. The membrane suspension was aliquots (500 μl per tube) and stored at −80° C. until required.
(§3) Membrane homogenates were resuspended and polytronised (Polytron PT1200E Kinematica AG) in Potassium Phosphate 10 mM, KCl 100 mM binding buffer at pH 7.4 to a final assay concentration determined with a previous experiment.
(§4) Assays were incubated to equilibrium for 1 hour at 4° C. and then, membranes were filtered onto unifilter (96-well white microplate with bonded GF/C filters preincubated 20-50 minutes in 0.3% Polyethylenimine) with a Filtermate 196 harvester (Packard BioScience) and washed 4 times with cold Potassium Phosphate 10 mM pH 7.4, KCl 100 mM binding buffer. After anhydrousing, filter-retained radioactivity was detected by liquid scintillation counting. Ki values were calculated using Excel-Fit (Microsoft) and are the means of two determinations.

[4] = biological target: human GABAA α2β2γ1 receptor (Homo sapiens (Human), UniProt P47869+Q8N1C3); assay: Radioligand binding assay for γ1-containing GABAA subtypes, [3H]RO7239181 competition (α2β2γ1)
Method: as §1, §2, §3, §4

[5] = Ki h-GABAA α2β2γ1, [3H]RO7239181 competition binding, human GABAA α2β2γ1
[6] = Ki h-GABAA α2β2γ1, displacement of [3H]RO7239181, membranes of HEK293F cells expressing human receptors, means of two determinations

Structure (SMILES)	Ki [1]	γ2/γ1 Selectivity Ratio [1]	LogSel [1]	Efficacy (GABA)% [2]	Fold increase h-GABA-A α2β2γ1 oocyte @ 30-fold Ki [2]	Ki [3]	Ki [4, 5]	Ki [4, 6]
C[C@@H]1N=C(c2c(F)cccc2F)c2c(ccc(C(F)(F)F)c2Cl)-n2cc(CO)nc21 [Example 149, [(4S)-7-chloro-6-(2,6-difluorophenyl)-4-methyl-8-(trifluoromethyl)-4H-imidazo[1,2-a][1,4]benzodiazepin-2-yl]methanol]	1110 nM	134.1	2.13	71%	1.71	1.59 nM	8.3 nM	8.3 nM
Cc1nc2n(n1)-c1ccc(C(F)(F)F)c(Cl)c1C(c1c(F)cccc1F)=N[C@H]2C [Example 29, (4S)-7-chloro-6-(2,6-difluorophenyl)-2,4-dimethyl-8-(trifluoromethyl)-4H-[1,2,4]triazolo[1,5-a][1,4]benzodiazepine]	1090 nM	109.1	2.04	80%	1.80	0.69 nM	10 nM	10 nM
C[C@@H]1N=C(c2c(F)cccc2F)c2c(ccc(Cl)c2Cl)-n2nc(C(=O)N3CC(OC(F)F)C3)nc21 [Example 31, [(4S)-7,8-dichloro-6-(2,6-difluorophenyl)-4-methyl-4H-[1,2,4]triazolo[1,5-a][1,4]benzodiazepin-2-yl]-[3-(difluoromethoxy)azetidin-1-yl]methanone]	565 nM	33.2	1.52	66%	1.66	1.33 nM	17 nM	17 nM
COC1CN(C(=O)c2nc3n(n2)-c2ccc(Cl)c(Cl)c2C(c2ncccc2F)=N[C@H]3C)C1 [Example 38, [(4S)-7,8-dichloro-6-(3-fluoro-2-pyridyl)-4-methyl-4H-[1,2,4]triazolo[1,5-a][1,4]benzodiazepin-2-yl]-(3-methoxyazetidin-1-yl)methanone]	2200 nM	77.8	1.89	116%	2.16	4.46 nM	28.2 nM	28.2 nM
C[C@@H]1N=C(c2c(F)cccc2F)c2c(ccc(Cl)c2Cl)-n2cc(C(=O)N3CC(C#N)C3)nc21 [Example 71, 1-[(4S)-7,8-dichloro-6-(2,6-difluorophenyl)-4-methyl-4H-imidazo[1,2-a][1,4]benzodiazepine-2-carbonyl]azetidine-3-carbonitrile]	389 nM	32.8	1.52	51%	1.51	1.84 nM	11.9 nM	11.9 nM
COCc1cn2c(n1)CN=C(c1c(F)cccc1F)c1c-2ccc(Cl)c1Cl [Example 5, 7,8-dichloro-6-(2,6-difluorophenyl)-2-(methoxymethyl)-4H-benzo[f]imidazo[1,2-a][1,4]diazepine]	307 nM	31.9	1.50	78%	1.78	1.2 nM	9.6 nM	9.6 nM
O=C(NC1COC1)c1nc2n(n1)-c1ccc(Cl)c(Cl)c1C(c1c(F)cccc1F)=NC2 [Example 10, 7,8-dichloro-6-(2,6-difluorophenyl)-N-(oxetan-3-yl)-4H-[1,2,4]triazolo[1,5-a][1,4]benzodiazepine-2-carboxamide]	445 nM	145.5	2.16	70%	1.70	0.79 nM	3.1 nM	3.06 nM
